Assay [1] has as its system P. aeruginosa. The assay can be described thus: Molecular phenotypic antimicrobial susceptibility test with direct PCR (no extraction DNA purification step). The class given is cell-based, Pseudomonas aeruginosa. The settings on record: for Ct at Sensitive Breakpoint: P. aeruginosa isolate MRSN1938, Ct at control (average) 12.031; for Molecular Antimicrobial Susceptibility Result: P. aeruginosa isolate MRSN1938, at sensitive breakpoint. The protocol: (§1) Detection of Molecular Phenotypic Antimicrobial Susceptibility. Disclosed herein are the methods for the detection of phenotypic antimicrobial susceptibility via molecular methods. The present invention describes how a specimen 100 with a known microbial load is incubated and then exposed to a panel of antimicrobial agents to determine sensitivity (prevention of growth) or resistance (allowance of growth) to the specific antimicrobial agents tested utilizing molecular methods.
(§2) Sample Collection. Specimens 100 are collected from patients using sterile collection processes that are employed in routine clinical care. Specimens are transported to the testing facility in boric acid preservative. Specimens 100 are subsequently divided into a first sample 104 and a second sample 108.
(§3) Preparation of the Specimens for Testing. The specimens 100 are put through a pathogen identification process using PCR technology (e.g., using the first sample 104). The process for pathogen isolation includes steps of harvesting the pathogen (e.g., via centrifugation), isolating pathogen DNA via a DNA isolation and/or purification kit, and performing PCR on the pathogen DNA via PCR components (e.g., primers, enzymes, buffers) as would be known to the skilled artisan. Simultaneously, an additional aliquot of the same specimen (e.g., the second sample 108) is placed with liquid culture media and incubated for 4-6 hours. This aliquot is used for antimicrobial susceptibility testing if indicated based on the pathogen detection results. After pathogen identification is completed and if more than 10,000 cells/mL of bacteria (e.g., eligible bacteria) are detected in the source specimen, the second sample 108 then enters the antimicrobial susceptibility phase of testing. Specimens 100 with lower pathogen loads could also be utilized in the antibiotic susceptibility phase of testing with or without a longer incubation period.
(§4) Preparation of Antimicrobial Susceptibility Testing Plates. Antimicrobial solutions are prepared at known concentrations. The specific antimicrobials and their concentrations are selected based on the pathogen of interest and the described antimicrobial resistance breakpoints for that specimen pathogen and antimicrobial combination. These antimicrobials have been selected based on those commonly utilized by healthcare providers in routine clinical care for the specific type of suspected infection. The number and types of antimicrobials utilized can be customized based on the infection source, pathogen detected, patient-specific factors such as allergies or other health conditions (e.g., chronic kidney disease or concurrent medication use), or healthcare provider preferences such as antimicrobial availability or cost.
(§5) The antimicrobial solutions are prepared in liquid culture media (such as Muller Hinton Broth) to achieve the desired antimicrobial concentration and are then stored at −80° C. until use. For a given specimen, each antimicrobial is tested at a single or multiple antimicrobial concentration(s) which is its established breakpoints for sensitivity. The antimicrobial solutions are prepared and plated out for each specific pathogen. This allows ease of use on the day of testing after defrosting the plate 112. Table 1, which illustrates the results of molecular phenotypic antimicrobial susceptibility testing when more than one organism is present in the source specimen, provides an example of an antimicrobial plate 112 prepared for this purpose. Of note, control wells containing only culture media are present on all plates 112. This allows for evaluation of pathogen load when no antimicrobial is present.
(§6) Specimen Exposure to Antimicrobial Agents. The 1 mL aliquot of the specimen 100 previously mixed with culture media and incubated is obtained. Using optical density measurements as a guide, the specimen 100 is diluted to 0.5 McFarland. […]

The subject of assay [2] is Staphylococcus epidermidis. The assay can be described thus: Molecular phenotypic antimicrobial susceptibility test (semi-quantitative PCR after antimicrobial exposure; extraction/DNA purification prior to PCR). The format is cell-based. The protocol: as §1, §2, §3, §4, §5, §6
A further assay deals with Acinetobacter baumannii. The experiment in a line: Traditional culture-based antimicrobial susceptibility test. The class given is cell-based. An excerpt:
Table 2 illustrates the results of an example antimicrobial agent susceptibility test of the current application versus a traditional culture-based antimicrobial agent susceptibility test for […], in accordance with one or more embodiments of the disclosure. This specimen underwent extraction and/or DNA purification prior to PCR. As in Table 1, the results of the test of the current application are similar to the results from the traditional test.
(§7) Result Reporting to Healthcare Providers. The results from the antimicrobial exposure are reported to the ordering healthcare provider. This information can be utilized by the healthcare provider when selecting an antimicrobial regimen for their individual patient based on these individual specimen results and patient specific factors. […] The current standard of care for antimicrobial susceptibility testing involves the growth, isolation, and exposure of pathogens to antimicrobials. This traditional culture and sensitivity process can take multiple days to obtain results, limiting the ability of healthcare providers to receive timely results to make actionable changes in patient care or management. Healthcare providers desire a method to obtain antimicrobial susceptibility results with quicker turn-around-time. This application discloses a molecular-based phenotypic antimicrobial susceptibility method which involves pathogen exposure to a panel of antimicrobial agents at their specified minimum inhibitory concentration breakpoints for sensitivity. This method allows for more timely antimicrobial susceptibility results.

Assay [3] deals with P. aeruginosa. Described as above. The format is cell-based, Pseudomonas aeruginosa. Particulars: P. aeruginosa isolate MRSN1938. The protocol: (§8) Table 5 illustrates the results of an example antimicrobial agent susceptibility test of the current application versus a traditional culture-based antimicrobial agent susceptibility test for multiple specimens with different pathogens, in accordance with one or more embodiments of the disclosure. These specimens were tested with direct PCR (e.g., no extraction DNA purification step prior to PCR). As in Tables 1, 2, and 3, the results of the test of the current application are similar to the results from the traditional test.
as §7

A further assay deals with pathogen of the specimen. The assay can be described thus: Traditional culture-based antimicrobial susceptibility test (comparison of Table 7). The settings on record: E. coli isolate 1189. The class given is cell-based. The protocol:
as §7, with “Table 7 illustrates the results of an example antimicrobial agent susceptibility test of the current application versus a traditional culture-based antimicrobial agent susceptibility test at multiple incubation timepoints, in accordance with one or more embodiments of the disclosure. These specimens were tested with direct PCR (e.g., no extraction DNA purification step prior to PCR). […] Result” for “Result”

For another assay, the system named is S. aureus. The assay can be described thus: Traditional culture-based antimicrobial susceptibility test. The settings on record: S. aureus isolate NR-46412 HIP13170. The format is cell-based, Staphylococcus aureus. The protocol: as §8, §7

On to `CO/N=C(\C(=O)N[C@@H]1C(=O)N2C(C(=O)[O-])=C(C[N+]3(C)CCCC3)CS[C@H]12)c1csc(N)n1` [Cefepime], for which the “Ct at Sensitive Breakpoint” value in the assay on P. aeruginosa [1] came to 13.373; in assay [2] (S. epidermidis isolate 1, Ct at control (average) 10.611), 11.785; in assay [2] (S. epidermidis isolate 2, Ct at control (average) 11.861), 8.669; in assay [2] (S. epidermidis isolate 3, Ct at control (average) 12.941), 8.646; in assay [2] (S. epidermidis isolate 4, Ct at control (average) 11.861), 8.418; in assay [2] (S. epidermidis isolate 5, Ct at control (average) 12.941), 8.474. Moreover, the “Molecular Antimicrobial Susceptibility Result” value in the assay on P. aeruginosa [1] was “Sensitive (Antimicrobial wells with pathogen load detected below the control wells (typically >2 cycle thresholds later) may be reported as Sensitive)”; in assay [2] (S. epidermidis isolate 1, at sensitive breakpoint), “Resistant”; in assay [2] (S. epidermidis isolate 2, at sensitive breakpoint) it was “Resistant”; in assay [2] (S. epidermidis isolate 3, at sensitive breakpoint), “Resistant”; in assay [2] (S. epidermidis isolate 4, at sensitive breakpoint), “Resistant”; in assay [2] (S. epidermidis isolate 5, at sensitive breakpoint), “Resistant”. The “Traditional Culture Result” value with Acinetobacter baumannii (A. baumannii isolate 1) is reported as “Resistant”; in the assay on Acinetobacter baumannii (A. baumannii isolate 2), “Resistant”; in the assay with Acinetobacter baumannii (A. baumannii isolate 3), “Sensitive”; in the assay on Acinetobacter baumannii (A. baumannii isolate 4), “Resistant”; in the assay with Acinetobacter baumannii (A. baumannii isolate 5), “Resistant”; with P. aeruginosa [3], “Sensitive”. Also, in the assay with pathogen of the specimen, the “Traditional Culture Result” value is reported as “Sensitive”.
Regarding `O=C(O)c1cn(C2CC2)c2cc(N3CCNCC3)c(F)cc2c1=O` [Ciprofloxacin], the “Ct at Sensitive Breakpoint” value in the assay on P. aeruginosa [1] worked out at 12.239. Also, in the assay with P. aeruginosa [1], the “Molecular Antimicrobial Susceptibility Result” value is listed as “Resistant”. Moreover, the “Traditional Culture Result” value in the assay on Acinetobacter baumannii (A. baumannii isolate 1), in the assay on Acinetobacter baumannii (A. baumannii isolate 2), in the assay with Acinetobacter baumannii (A. baumannii isolate 3), in the assay with Acinetobacter baumannii (A. baumannii isolate 4), in the assay on Acinetobacter baumannii (A. baumannii isolate 5) and with S. aureus was “Resistant” throughout. For the same molecule, the “Traditional Culture Result” value with P. aeruginosa [3] is recorded as “Resistant”; with pathogen of the specimen, “Sensitive”.

The values are drawn from US20250290117A1, “MOLECULAR PHENOTYPIC ANTIMICROBIAL SUSCEPTIBILITY TESTING” (priority 2024, published 2025).
